Data: PubChem BioAssay AID248 (DTP/NCI, 2004)
Inconclusive results and toxic doses are left out. No stated cut-off is given here; in the data, active means T/C of 150% or more; inactive means T/C below 125%. Square brackets hold non-standard residues; d marks the D form. Peptide text beside a SMILES is read from it. * marks the point of attachment. ξ: configuration not given here. ξY = NC(Cc1ccc(O)cc1)C(=O)O; Cbz = O=C(OCc1ccccc1)*

System: L1210 leukemia ip in BDF1 mice, survival T/C
Experiment: NCI In Vivo Anticancer Drug Screen. Data for tumor model L1210 Leukemia (intraperitoneal) in B6D2F1 (BDF1) mice
Conditions: endpoint: mean survival time, higher = longer survival
Method in brief: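 Survival endpoint. Drug-treated group vs vehicle group, expressed as T divided by C. Tumor passaged by transplantation.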

[1] = dose: 50.0 mg/kg/injection, schedule: Q01DX001 (ip), vehicle: saline
[2] = dose: 100.0 mg/kg/injection, schedule: Q01DX001 (ip), vehicle: saline
[3] = dose: 200.0 mg/kg/injection, schedule: Q01DX001 (ip), vehicle: saline
[4] = dose: 400.0 mg/kg/injection, schedule: Q01DX001 (ip), vehicle: saline
[5] = dose: 50.0 mg/kg/injection, schedule: Q01DX009 (ip), vehicle: saline
[6] = dose: 100.0 mg/kg/injection, schedule: Q01DX009 (ip), vehicle: saline
[7] = dose: 100.0 mg/kg/injection, schedule: Q04DX003 (ip), vehicle: saline
[8] = dose: 200.0 mg/kg/injection, schedule: Q04DX003 (ip), vehicle: saline
[9] = dose: 100.0 mg/kg/injection, schedule: Q04DX003 (ip), vehicle: Klucel (hydroxypropylcellulose) (HPC)
[10] = dose: 200.0 mg/kg/injection, schedule: Q04DX003 (ip), vehicle: Klucel (hydroxypropylcellulose) (HPC)
[11] = dose: 400.0 mg/kg/injection, schedule: Q04DX003 (ip), vehicle: Klucel (hydroxypropylcellulose) (HPC)
[12] = dose: 50.0 mg/kg/injection, schedule: Q01DX009 (ip), vehicle: Klucel (hydroxypropylcellulose) (HPC)
[13] = dose: 400.0 mg/kg/injection, schedule: Q04DX003 (ip), vehicle: saline
[14] = dose: 100.0 mg/kg/injection, schedule: Q01DX009 (ip), vehicle: saline with Tween-80
[15] = dose: 200.0 mg/kg/injection, schedule: Q01DX009 (ip), vehicle: saline with Tween-80
[16] = dose: 400.0 mg/kg/injection, schedule: Q01DX009 (ip), vehicle: saline with Tween-80
[17] = dose: 100.0 mg/kg/injection, schedule: Q04DX003 (ip), vehicle: saline with Tween-80
[18] = dose: 200.0 mg/kg/injection, schedule: Q04DX003 (ip), vehicle: saline with Tween-80
[19] = dose: 400.0 mg/kg/injection, schedule: Q04DX003 (ip), vehicle: saline with Tween-80

Measured: T/C

COC(=O)C(NC(C)=O)C(C)C (centres undefined)
inactive: dose: 6.25 mg/kg/injection, schedule: Q03HX024 (ip), vehicle: saline 97 % of control | dose: 12.5 mg/kg/injection, schedule: Q03HX024 (ip), vehicle: saline 96 % of control | dose: 25.0 mg/kg/injection, schedule: Q01DX001 (ip), vehicle: saline 100 % of control | dose: 25.0 mg/kg/injection, schedule: Q03HX024 (ip), vehicle: saline 89 % of control | [1] 96 % of control | dose: 50.0 mg/kg/injection, schedule: Q03HX024 (ip), vehicle: saline 89 % of control | [2] 101 % of control | dose: 100.0 mg/kg/injection, schedule: Q03HX024 (ip), vehicle: saline 105 % of control | [3] 99 % of control | [4] 106 % of control

CCCCCCCCCCCCc1ccccc1
inactive: [1] 91 % of control | [2] 97 % of control | [3] 97 % of control | [4] 101 % of control

CC(C)NNCCO
inactive: [5] 98 % of control | [6] 103 % of control | [7] 89 % of control | [8] 95 % of control

NCC(O)COc1ccccc1N (centres undefined)
inactive: dose: 3.12 mg/kg/injection, schedule: Q01DX009 (ip), vehicle: saline 97 % of control | dose: 6.25 mg/kg/injection, schedule: Q01DX009 (ip), vehicle: saline 106 % of control | dose: 12.5 mg/kg/injection, schedule: Q01DX009 (ip), vehicle: saline 100 % of control | dose: 12.5 mg/kg/injection, schedule: Q04DX003 (ip), vehicle: saline 93 % of control

NC(=S)NNC1CCCCC1
inactive: dose: 22.0 mg/kg/injection, schedule: Q01DX Z (ip), vehicle: methylcellulose (MC) 94 % of control | dose: 33.0 mg/kg/injection, schedule: Q01DX Z (ip), vehicle: methylcellulose (MC) 117 % of control | dose: 50.0 mg/kg/injection, schedule: Q01DX Z (ip), vehicle: methylcellulose (MC) 93 % of control

CCc1cc2c(cc1C(=O)/C=C\c1cccc3ccccc13)C(C)(C)CCC2(C)C
inactive: dose: 25.0 mg/kg/injection, schedule: Q04DX002 (ip), vehicle: saline with Tween-80 89 % of control | dose: 100.0 mg/kg/injection, schedule: Q04DX002 (ip), vehicle: saline with Tween-80 89 % of control

COC1=C(c2ccccc2)C(=O)CCc2ccccc21
inactive: [9] 97 % of control | [10] 106 % of control | [11] 97 % of control

CC(C)=CCc1c2c(c3occ(-c4ccc(O)cc4)c(=O)c3c1O)C=CC(C)(C)O2
inactive: [9] 88 % of control | [11] 88 % of control

Cc1cc(N(CCCl)CCCl)ccc1C=Nc1ccc(-c2csc(-c3ccccc3)n2)cc1
inactive: dose: 50.0 mg/kg/injection, schedule: Q01DX001 (ip), vehicle: carboxymethylcellulose (CMC) 103 % of control | dose: 100.0 mg/kg/injection, schedule: Q01DX001 (ip), vehicle: carboxymethylcellulose (CMC) 94 % of control | dose: 200.0 mg/kg/injection, schedule: Q01DX001 (ip), vehicle: carboxymethylcellulose (CMC) 97 % of control | dose: 400.0 mg/kg/injection, schedule: Q01DX001 (ip), vehicle: carboxymethylcellulose (CMC) 100 % of control

CCc1ccc(NC(=O)NC(C)C)cc1
inactive: [12] 113 % of control | dose: 100.0 mg/kg/injection, schedule: Q01DX009 (ip), vehicle: Klucel (hydroxypropylcellulose) (HPC) 91 % of control | [9] 103 % of control | dose: 200.0 mg/kg/injection, schedule: Q01DX009 (ip), vehicle: Klucel (hydroxypropylcellulose) (HPC) 103 % of control | [10] 92 % of control

Cc1ccc(S(=O)(=O)N2CN3CN(C2)CN(S(=O)(=O)c2ccc(C)cc2)C3)cc1
inactive: [7] 95 % of control | [8] 86 % of control | [13] 95 % of control

CCN(CC)S(=O)(=O)c1cccc(C(O)CC(O)(C(F)(F)F)C(F)(F)F)c1 (centres undefined)
inactive: dose: 100.0 mg/kg/injection, schedule: Q04DX003 (ip), vehicle: other 102 % of control | dose: 200.0 mg/kg/injection, schedule: Q04DX003 (ip), vehicle: other 100 % of control | dose: 400.0 mg/kg/injection, schedule: Q04DX003 (ip), vehicle: other 96 % of control

NNC(=O)NN
inactive: [14] 87 % of control | [15] 90 % of control | [16] 87 % of control

OCC1CC2CCC1CC2 (centres undefined)
inactive: dose: 50.0 mg/kg/injection, schedule: Q01DX009 (ip), vehicle: saline with Tween-80 100 % of control | [14] 105 % of control | [15] 108 % of control

O=C1C(Br)=Cc2cccc3cccc1c23
inactive: dose: 25.0 mg/kg/injection, schedule: Q01DX009 (ip), vehicle: saline sonified 100 % of control | dose: 50.0 mg/kg/injection, schedule: Q01DX009 (ip), vehicle: saline sonified 97 % of control | dose: 100.0 mg/kg/injection, schedule: Q01DX009 (ip), vehicle: saline sonified 100 % of control | [14] 101 % of control | [9] 90 % of control | [17] 97 % of control | [15] 104 % of control | [18] 95 % of control | [16] 97 % of control | [11] 87 % of control | [19] 103 % of control

O=[N+]([O-])c1ccc2[nH]c3c(c2c1)CSCC3
inactive: [14] 91 % of control | [17] 100 % of control | [15] 88 % of control | [18] 100 % of control | [16] 94 % of control | [19] 95 % of control

O=C(O)C(Cl)Cc1cnc[nH]1 (centres undefined)
inactive: [5] 100 % of control | [6] 100 % of control | dose: 200.0 mg/kg/injection, schedule: Q01DX009 (ip), vehicle: saline 103 % of control

COC(=O)c1cncc(C(=O)OC)c1
inactive: dose: 100.0 mg/kg/injection, schedule: Q04DX003 (ip), vehicle: saline sonified 95 % of control | dose: 200.0 mg/kg/injection, schedule: Q04DX003 (ip), vehicle: saline sonified 104 % of control | dose: 400.0 mg/kg/injection, schedule: Q04DX003 (ip), vehicle: saline sonified 97 % of control

CC(N)CNc1ccccc1 (centres undefined)
inactive: dose: 12.5 mg/kg/injection, schedule: Q04DX003 (ip), vehicle: water 105 % of control | dose: 25.0 mg/kg/injection, schedule: Q04DX003 (ip), vehicle: water 98 % of control | dose: 50.0 mg/kg/injection, schedule: Q04DX003 (ip), vehicle: water 104 % of control

COC(=O)NS(=O)(=O)c1ccn(C)c1
inactive: dose: 100.0 mg/kg/injection, schedule: Q01DX001 (ip), vehicle: Klucel (hydroxypropylcellulose) (HPC) 97 % of control | [9] 100 % of control | dose: 200.0 mg/kg/injection, schedule: Q01DX001 (ip), vehicle: Klucel (hydroxypropylcellulose) (HPC) 98 % of control | [10] 100 % of control | dose: 400.0 mg/kg/injection, schedule: Q01DX001 (ip), vehicle: Klucel (hydroxypropylcellulose) (HPC) 104 % of control | [11] 100 % of control

NC1CCC(CC2CCCCC2)CC1 (centres undefined)
inactive: dose: 25.0 mg/kg/injection, schedule: Q01DX009 (ip), vehicle: Klucel (hydroxypropylcellulose) (HPC) 96 % of control | dose: 25.0 mg/kg/injection, schedule: Q04DX003 (ip), vehicle: Klucel (hydroxypropylcellulose) (HPC) 95 % of control | [12] 98 % of control | dose: 50.0 mg/kg/injection, schedule: Q04DX003 (ip), vehicle: Klucel (hydroxypropylcellulose) (HPC) 100 % of control | [9] 91 % of control

CCOC(=O)C(Cc1ccc(O)cc1)NC(=O)CNC(=O)OCc1ccccc1 (stereo not drawn) (Cbz-Gly-[ξY]-OEt)
inactive: [17] 106 % of control | [18] 95 % of control | [19] 96 % of control

CC1CC(=O)NC1=O (centres undefined)
inactive: [7] 115 % of control | [8] 116 % of control | [13] 112 % of control

Cc1cc2c(cc1C)N(C(=O)CN1CCCCC1)CC(=O)N2
inactive: dose: 75.0 mg/kg/injection, schedule: Q01DX001 (ip), vehicle: saline 93 % of control | dose: 150.0 mg/kg/injection, schedule: Q01DX001 (ip), vehicle: saline 91 % of control | dose: 300.0 mg/kg/injection, schedule: Q01DX001 (ip), vehicle: saline 93 % of control
